In publication PMC9301601 (Frontiers in Pharmacology, 2022):

Key:
hERG potassium channel = system: hERG potassium channel; design: method as in Szendrey et al., 2021; settings: ref Szendrey et al., 2021; cited from earlier work
hERG protein = system: hERG protein; design: method as in Borsini et al., 2012; settings: ref Borsini et al., 2012; cited from earlier work
hERG = system: hERG; design: method as in Szendrey et al., 2021; settings: when acting alone; ref Szendrey et al., 2021; cited from earlier work
KCNQ1 = experiment: RT-qPCR of KCNQ1 in hiPSC-CMs; format: cell-based, human
COVID-19 = system: COVID-19; design: method as in Lenze et al., 2020; settings: hospitalized patients with COVID-19, double-blind RCT; ref Lenze et al., 2020; cited from earlier work
[1] = system: sodium or calcium channels (SLC8A1, CACNA1C, SCN5A); experiment: RT-qPCR of cardiac ion channel genes in hiPSC-CMs: sodium or calcium channels; format: cell-based, human; settings: GAPDH housekeeping
ICaL = system: ICaL; design: method as in Chen et al., 2020; Guo et al., 2021; settings: as a sigma-1 receptor agonist; ref Chen et al., 2020; Guo et al., 2021; cited from earlier work
hiPSC-CMs = experiment: Action potential recording in hiPSC-CMs, whole-cell patch-clamp (current-clamp); format: cell-based, human; settings: for decrease of APD vs CTL / APD (APD90): 24-h incubation; for APD (APD90): CTL 364.4 ms, p < 0.0001, n = 14; for early after-depolarizations (EADs) during repolarization: transient effect, recorded within 1 hour
Ito = system: Ito; design: method as in Chen et al., 2020; Guo et al., 2021; settings: as a sigma-1 receptor agonist; ref Chen et al., 2020; Guo et al., 2021; cited from earlier work
SARS-CoV-2 = system: SARS-CoV-2; design: method as in Lou et al., 2021; settings: read-out: 50% effective inhibition concentration (EC50) against SARS-CoV-2; ref Lou et al., 2021; cited from earlier work
Hsp90 = experiment: Western blot of chaperone Hsp90 after 24 h incubation; format: cell-based, human; settings: LPV 1-20 μM
Hsp70 = experiment: Western blot of chaperone Hsp70 after 24 h incubation; format: cell-based, human; settings: LPV 1-20 μM, especially at 10 μM
[2] = FLV-treated hiPSC-CMs, Figure 6H
[3] = LPV-treated hiPSC-CMs, Figure 6H

## CCN(CC)CCCC(C)Nc1ccnc2cc(Cl)ccc12 (stereo not shown) [chloroquine]
hERG potassium channel
  effect on the hERG current (IhERG): acutely and severely inhibited
hERG protein
  trafficking of the hERG protein: prompted the trafficking

## CCC(CC)COC(=O)[C@H](C)N[P@](=O)(OC[C@H]1O[C@@](C#N)(c2ccc3c(N)ncnn23)[C@H](O)[C@@H]1O)Oc1ccccc1 [remdesivir]
hERG
  hERG maturation: promoted hERG maturation
hERG potassium channel
  effect on the hERG current (IhERG): increased

## COCCCC/C(=N\OCCN)c1ccc(C(F)(F)F)cc1 [FLV, fluvoxamine]
KCNQ1; chronic FLV administration
  level of KCNQ1 nucleic acid: increased
COVID-19
  clinical deterioration rate: lower clinical deterioration rate
[1]; 3 μM FLV
  mRNA expression of sodium or calcium channels: did not significantly alter
ICaL
  effect on ICaL: decreases
hiPSC-CMs; 3 μM FLV
  decrease of APD vs CTL: 183.6 ms
  APD (APD90): 180.8 ms
  early after-depolarizations (EADs) during repolarization: induce the occurrence of EADs
hiPSC-CMs; [2]
  APD10: 52.3 ± 8.8 ms
  Amp (amplitude): 99.2±9.7 mV
  MDP (maximum diastolic potential): -51.8±8.3 mV
Ito
  effect on Ito: enhances

## CCN(CCO)CCCC(C)Nc1ccnc2cc(Cl)ccc12 (stereo not shown) [hydroxychloroquine]
hERG potassium channel
  effect on the hERG current (IhERG): acutely and severely inhibited

## Cc1cccc(C)c1OCC(=O)N[C@@H](Cc1ccccc1)[C@@H](O)C[C@H](Cc1ccccc1)NC(=O)[C@H](C(C)C)N1CCCNC1=O [LPV, lopinavir]
KCNQ1; chronic LPV administration
  level of KCNQ1 nucleic acid: increased
SARS-CoV-2
  EC50: 1.74 µM
Hsp90
  expression levels of Hsp90: significant reduction
[1]; 10 μM LPV
  mRNA expression of sodium or calcium channels: did not significantly alter
hiPSC-CMs; 10 μM LPV
  decrease of APD vs CTL: 191.8 ms
  APD (APD90): 172.6 ms
  early after-depolarizations (EADs) during repolarization: induce the occurrence of EADs
hiPSC-CMs; [3]
  APD10: 48.9 ± 10.3 ms
  APD30: 103.6 ± 11.2 ms
  Amp (amplitude): 103.8±6.1 mV
  MDP (maximum diastolic potential): -59.1±3.6 mV
Hsp70
  expression of Hsp70: significantly increased
